According to US9295676B2, “Mutation mimicking compounds that bind to the kinase domain of EGFR” (The Trustees Of The University of Pennsylvania, priority 2011, dated 2016):

Experiments:
L858R EGFR = biological target: T1, L858R EGFR (Homo sapiens, UniProt P00533, L858R); assay: Western blot of EGFR phosphorylation in mouse fibroblasts expressing L858R EGFR (FIG. 6B); assay type: cell-based
T1 construct: expressed in transfected cells; host or cells: mouse fibroblasts
Procedure: (§1) Total EGFR levels were measured as a control.
That is, while the binding affinity of the compounds tested in non-mutated EGFR defined by the cavity described above (and when Leu is present in the 858 position), when the single mutation is introduced such that Leu-858 is replaced by Arg-858—the binding affinity drops dramatically. […] Accordingly, MMCs may be characterized as having a higher binding constant (lower dissociation constant) for non-mutated vs. L858R mutated EGFR.

AsPC1 pancreatic tumors = assay: In vivo tumor growth in mice with AsPC1 pancreatic tumors; conditions: for effect on tumor growth, single agent: 15 mg/kg, FIG. 10
Description: FIG. 10 graphically represents the results of in vivo testing of EEO3 (A) and EEO4 (B) in mice with AsPC1 tumors.

NE91 cells = assay: Anchorage independent growth, soft agar colony formation; assay type: cell-based, mouse
Procedure: Studies on the effects of the target compounds on anchorage-independent growth of tumor cells used four different cell lines, A549, Calu-3, NE91 and T6-17, which have different levels of EGFR molecules on the cell surface. […] Cells were analyzed for their effects on anchorage-independent growth using soft agar assays described previously in Qian, et al., “Inhibition of p185neu kinase activity and cellular transformation of co-expression of a truncated neu protein,” Oncogene, 13: 2149-2157 (1996). The cells were plated in triplicate in 0.4% agar-HBBS and allowed to grow for 2 to 3 weeks. The cells will be fed with 0.5 ml media containing compounds on the day after plating and once a week thereafter. The colonies were stained with the HBSS solution containing 1 mg/ml of P-iodonitrotetrazolium violet (2-[4-iodophenyl]-3-[4-nitrophenyl]-5-phenyltetrazolium chloride). The number of the colonies formed were counted.

wild type human EGFR = biological target: T2, wild type human EGFR (Homo sapiens, UniProt P00533); assay: Western blot of EGFR phosphorylation in NE91 cells (FIG. 6A); assay type: cell-based
T2 construct: expressed in transfected cells; host or cells: NE91 (mouse fibroblasts)
Procedure: as §1
Studies measuring total EGFR phosphorylation and phosphorylation of different tyrosines, cell lines NE91, NCI-H1666 and A549 expressing wild type EGFR were treated with the target compounds for 3 hours followed by either induction with 50 ng/ml EGF for 15 min or no EGF induction. The cell lysates were subjected to the immunoprecipitation with anti-EGFR antibodies followed by Western blotting with anti-pY99 (total phospho-tyrosine), anti-pY845, anti-pY1045, anti-pY 1068 and/or anti-pY1173 antibodies.

NCI-H1666 cells = assay: Apoptosis by annexin V staining and FACS, wild-type EGFR cells; assay type: cell-based; conditions: wild-type EGFR cell line, 1 μM Tarceva® + 1 μM compound, 48 hrs
Procedure: Apoptosis was analyzed by FACS analysis after Annexin V staining and propidium iodide staining of DNA, and by Western blotting tracking caspase cascade activation. […] The cell lysates were subjected to Western blotting with anti-caspase-8, anti-caspase-3, anti-caspase-9 and anti-PARP antibodies to detect cleavage. NCI-H1650 and H3255 cells expressing mutant EGFR were used as a positive control in the apoptosis studies.

activation of EGFR phosphorylation (L858R EGFR; cell line expressing mutant EGFR, compound alone, FIG. 6B lanes 1 and 2)	enhancement of Tarceva®-induced inhibition of EGFR phosphorylation (L858R EGFR; mutant cell line, FIG. 6B lanes 7 and 8)	receptor phosphorylation (wild type human EGFR; compound alone, track 3)	total EGFR levels (wild type human EGFR; in the presence of the compound)	SMILES	effect on tumor growth, single agent (AsPC1 pancreatic tumors)	antitumor effect of the combination with Tarceva® (AsPC1 pancreatic tumors; Tarceva® with 15 mg/kg of EEO3, FIG. 10)	inhibitory effect on cell growth in combination with Tarceva® (NE91 cells; 0.25 μM, FIG. 8A)	anchorage independent cell growth, single agent (NE91 cells; compound alone, 0.25 μM, FIG. 8A)	enhancement of the inhibitory effect of Tarceva® on colony formation (NE91 cells; with a low concentration of Tarceva®, 1 nM, FIG. 8B)	Tarceva®-induced inhibition of EGFR phosphorylation (wild type human EGFR; in combination with Tarceva®, track 4)	apoptotic activity of Tarceva® in the presence of the MMC (NCI-H1666 cells)	inhibitory effect on colony formation, single agent at low concentration (NE91 cells; low concentration, 1 nM, FIG. 8B)
does not activate EGFR phosphorylation	does not enhance	enhancement of receptor phosphorylation	No changes in total EGFR levels	CC1(C)Cc2cccc(C(=O)N3CCC(O)(c4ccc(Cl)cc4)CC3)c2O1 [EEO3]	weak antitumor effect similar to Tarceva® alone	significant synergistic antitumor effect	enhanced the inhibitory effect on cell growth	stimulated cell growth	even more dramatic	enhancement of Tarceva®-induced inhibition of EGFR phosphorylation	–	–
–	–	–	–	Nc1ccccc1Sc1nc(-c2ccccc2N)ccc1[N+](=O)[O-] [EEN6A]	–	–	–	–	–	–	increased to the level observed with Tarceva® alone in the mutant cell line	–
–	–	–	–	C#Cc1cccc(Nc2ncnc3cc(OCCOC)c(OCCOC)cc23)c1 [Tarceva®, erlotinib, reference compound]	only a modest effect on tumor growth	–	–	–	–	–	–	does not have any inhibitory effect by itself
